Assay results as given in patent US12187718B1, “1-cyclopropyl-6-fluoro-7-(4-((5-(4-methoxybenzylideneamino)-2-thioxo-1,3,4-thiadiazol-3(2H)-yl)methyl)piperazin-1-yl)-4-oxo-1,4-dihydroquinoline-3-carboxylic acid as an anti-inflammatory and anticancer compound” (KING FAISAL UNIVERSITY, priority 2023, dated 2025).

Key:
[1] = test system: human prostate cancer cells (PC3); assay: Cytotoxicity by SRB assay, PC3 cells; assay type: cell-based; conditions: androgen-independent metastatic human prostate cancer cells (PC3), 72 h, 0.01 μM to 100 μM
Experimental: (§1) The human prostate cancer cells (PC3) and human osteosarcoma cells (MG-63) were obtained from Nawah Scientific Inc. (Mokatam, Cairo, Egypt) and cultured in DMEM (Dulbecco's modified eagle's medium), Gibco, USA, supplemented with fetal bovine serum (FBS) at a concentration of 10% and 100 U/mL of penicillin and streptomycin (PS). The Cells were incubated at 37° C. in a humidified environment that contained 5% CO2.
(§2) Cells were seeded in 96-well plates as aliquots of 100 μL cell suspension and incubated in a complete media for 24 h. afterward, cells were treated with N′-(1-naphthoyloxy)-2-(benzo[d]thiazol-2-yl)acetimidamide at diverse concentrations ranging from 0.01 μM to 100 μM for 72 h. Then, cells were fixed at 4° C. for one hour with 150 μL of 10% trichloroacetic acid (TCA). After washing the cells five times with distilled water, 70 μL of sulforhodamine (SRB) solution (0.4% w/v) was added and incubated for 10 min at room temperature in a dark place. […] Then, 150 μL of Tris pH 10.5 (10 mM) was added, and the absorbance was measured at 540 nm using a BMG LABTECH®-FLUOstar Omega microplate reader (Ortenberg, Germany). Half maximal inhibitory concentrations (IC50) values were calculated for each experiment using GraphPad Prism 6 software. […]
(§3) The inhibition was calculated using the following equation: Inhibition %=100−Average Viability

[2] = test system: human osteosarcoma cells (MG-63); assay: Cytotoxicity by SRB assay, MG-63 cells; assay type: cell-based; conditions: osteosarcoma (MG-63) cells, 72 h, 0.01 μM to 100 μM
Experimental: as §1, §2, §3

Bovine Serum Albumin = Bovine Serum Albumin (Bos taurus, UniProt P02769); assay: Bovine Serum Albumin Assay (BSA), inhibition of protein denaturation; assay type: biochemical; conditions: BSA 0.4% w/v, pH 6.4, 72° C. for 10 minutes, 20-100 μg/mL, turbidity at 660 nm
Bovine Serum Albumin, sequence (P02769 25-607): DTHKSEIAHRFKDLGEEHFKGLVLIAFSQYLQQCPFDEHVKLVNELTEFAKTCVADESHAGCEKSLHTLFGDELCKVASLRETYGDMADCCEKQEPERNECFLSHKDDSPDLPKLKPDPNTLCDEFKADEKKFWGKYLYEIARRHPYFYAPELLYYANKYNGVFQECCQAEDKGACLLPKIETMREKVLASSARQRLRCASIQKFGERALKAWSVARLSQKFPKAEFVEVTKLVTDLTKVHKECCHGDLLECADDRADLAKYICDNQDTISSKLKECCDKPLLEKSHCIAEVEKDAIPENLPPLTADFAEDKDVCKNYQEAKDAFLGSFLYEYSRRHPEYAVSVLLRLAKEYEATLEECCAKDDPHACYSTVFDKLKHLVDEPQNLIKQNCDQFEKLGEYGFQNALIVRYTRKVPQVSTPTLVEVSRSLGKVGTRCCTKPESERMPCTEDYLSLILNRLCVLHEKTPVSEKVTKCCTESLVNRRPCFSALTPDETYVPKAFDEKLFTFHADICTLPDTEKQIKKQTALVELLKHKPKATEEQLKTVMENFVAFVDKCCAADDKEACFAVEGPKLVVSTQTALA
Experimental: In vitro-inflammatory activities of the tested samples were determined using a modified method of the BSA assay reported by Williams et al. BSA solution (0.4%, w/v) was prepared in Tris Buffered Saline. The pH was adjusted to 6.4 with glacial acetic acid. Different dilutions of 20, 40, 60, 80, and 100 μg/mL of the stock solutions were added to test tubes containing 1 mL of 0.4%, w/v BSA buffer solution. Both negative (solvent) and positive (aspirin) controls were assayed in a similar manner. The solutions were then heated in a water bath at 72° C. for 10 minutes and cooled for 20 minutes under laboratory conditions. The turbidity of the solutions (level of protein precipitation) was measured at 660 nm in Spectrophotometer (V-770 UV-Visible/NIR Spectrophotometer).
The percentage inhibition of precipitation (protein denaturation) was determined relative to the negative control using the following equation:
[formula] % Anti-Denaturation Activity=% Inhibition of Protein Denaturation=% Anti-inflammatory Activity

Compound: COc1ccc(/C=N/c2nn(CN3CCN(c4cc5c(cc4F)c(=O)c(C(=O)O)cn5C4CC4)CC3)c(=S)s2)cc1 [1-cyclopropyl-6-fluoro-7-(4-((5-(4-methoxybenzylideneamino)-2-thioxo-1,3,4-thiadiazol-3(2H)-yl)methyl)piperazin-1-yl)-4-oxo-1,4-dihydroquinoline-3-carboxylic acid]
- antiproliferative activity against PC3 cells [1]: excellent antiproliferative activities
- antiproliferative activity against MG-63 cells [2]: excellent antiproliferative activities
- in vitro anti-inflammatory activity (inhibition of protein denaturation) (Bovine Serum Albumin): considerable anti-inflammatory effect
